The source of these data is patent US9598387B2 (Southern Research Institute, priority 2012, dated 2017).

Broadly, the Ki is a measure of affinity in units of concentration, obtained from inhibition or displacement. Lower therefore signals higher affinity.

The target in assay [1] is human D3 dopamine receptor (Homo sapiens (Human), UniProt P35462). The assay can be described thus: Radioligand binding (125I-IABN competition), D3. Particulars: for Ki: 125I-IABN competition, HEK cell membranes expressing human D3; for D2/D3 (D3 selectivity ratio, D2 Ki/D3 Ki): calculated D2 Ki/D3 Ki. The method, then: (§1) The affinities of the target compounds were determined using radioligand binding experiments. […] Competition curves were modeled for a single site. Data from competition dose-response curves were analyzed using Tablecurve program (Jandel). IC50 values were converted to equilibrium dissociation constants (Ki values) using the Cheng and Prusoff correction.
Sequence of human D3 dopamine receptor (P35462 whole entry): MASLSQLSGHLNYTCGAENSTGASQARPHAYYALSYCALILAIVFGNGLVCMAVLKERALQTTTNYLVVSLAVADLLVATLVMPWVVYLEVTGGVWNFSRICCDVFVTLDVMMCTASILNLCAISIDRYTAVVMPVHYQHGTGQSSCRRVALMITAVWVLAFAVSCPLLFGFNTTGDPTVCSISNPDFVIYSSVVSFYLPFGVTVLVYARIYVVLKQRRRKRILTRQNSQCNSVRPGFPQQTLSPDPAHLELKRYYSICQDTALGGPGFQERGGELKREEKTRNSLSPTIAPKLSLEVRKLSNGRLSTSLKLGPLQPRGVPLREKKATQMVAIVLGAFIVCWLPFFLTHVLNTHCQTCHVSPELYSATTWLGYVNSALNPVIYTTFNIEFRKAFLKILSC

Assay [2] addresses human D2-long dopamine receptor (Homo sapiens (Human), UniProt P14416). The assay can be described thus: Radioligand binding (125I-IABN competition), D2. The conditions noted are these: HEK cell membranes expressing human D2-long. The method, then:
as §1

Sequence of human D2-long dopamine receptor (P14416 whole entry): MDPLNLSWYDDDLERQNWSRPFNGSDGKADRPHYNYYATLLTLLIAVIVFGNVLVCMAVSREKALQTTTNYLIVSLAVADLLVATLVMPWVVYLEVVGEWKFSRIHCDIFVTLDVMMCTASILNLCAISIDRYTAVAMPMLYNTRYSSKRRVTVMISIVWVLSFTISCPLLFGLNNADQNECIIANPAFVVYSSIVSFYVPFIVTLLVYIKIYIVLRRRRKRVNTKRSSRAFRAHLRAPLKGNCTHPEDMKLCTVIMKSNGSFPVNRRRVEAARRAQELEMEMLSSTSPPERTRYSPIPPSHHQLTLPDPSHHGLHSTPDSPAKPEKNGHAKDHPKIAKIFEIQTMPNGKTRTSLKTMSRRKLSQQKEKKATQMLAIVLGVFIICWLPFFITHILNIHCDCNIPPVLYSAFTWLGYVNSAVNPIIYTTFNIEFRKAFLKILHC

With `O=C(NCCCCN1CCN(c2cccc(C(F)(F)F)c2)CC1)N1CCN(c2ccccc2)CC1` [Compound 2, 4-Phenyl-N-(4-(4-(3-(trifluoromethyl)phenyl)piperazin-1-yl)butyl)piperazine-1-carboxamide], in assay [1], the affinity corresponds to a Ki of 0.0142 ± 0.0029 µM and the “D2/D3 (D3 selectivity ratio, D2 Ki/D3 Ki)” value is 21. Also, in assay [2], the affinity corresponds to a Ki of 0.303 ± 0.0104 µM.

For `CC(C)(C)c1nc(C2CC2)cc(N2CCN(CCCCNC(=O)N3CCN(c4ccccc4)CC3)CC2)n1` [Compound 9, N-(4-(4-(2-(tert-Butyl)-6-cyclopropylpyrimidin-4-yl)piperazin-1-yl)butyl)-4-phenylpiperazine-1-carboxamide], the inhibitory constant (Ki) is 0.0151 ± 0.0028 µM in assay [1] and 0.515 ± 0.0596 µM in assay [2]. For the same compound, in assay [1], the “D2/D3 (D3 selectivity ratio, D2 Ki/D3 Ki)” value is 34.

Turning to `CC(C)(C)c1cc(N2CCN(CCCCNC(=O)N3CCN(c4ccccc4)CC3)CC2)nc(C(C)(C)C)n1` [Compound 10, N-(4-(4-(2,6-Di-tert-butylpyrimidin-4-yl)piperazin-1-yl)butyl)-4-phenylpiperazine-1-carboxamide], in assay [1], the Ki was determined as 0.0151 ± 0.0042 µM and the “D2/D3 (D3 selectivity ratio, D2 Ki/D3 Ki)” value is 22. The Ki in assay [2] was determined as 0.337 ± 0.0678 µM.

Regarding `O=C(NCCCCN1CCN(c2ccnc3cc(Cl)ccc23)CC1)N1CCN(c2ccccc2)CC1` [Compound 12, N-(4-(4-(7-Chloroquinolin-4-yl)piperazin-1-yl)butyl)-4-phenylpiperazine-1-carboxamide], in assay [1], affinity was put at a Ki of 0.0269 ± 0.0049 µM and the “D2/D3 (D3 selectivity ratio, D2 Ki/D3 Ki)” value is on record as 35. Moreover, the Ki in assay [2] worked out at 0.933 ± 0.091 µM.

Take `CC(C)(C)c1nc(N2CCN(CCCCNC(=O)N3CCN(c4ccccc4Cl)CC3)CC2)cc(C(F)(F)F)n1` [Compound 14, N-(4-(4-(2-(tert-Butyl)-6-(trifluoromethyl)pyrimidin-4-yl)piperazin-1-yl)butyl)-4-(2-chlorophenyl)piperazine-1-carboxamide]: the Ki is 0.0214 ± 0.0034 µM in assay [1] and 0.738 ± 0.0888 µM in assay [2]. Besides, in assay [1], the “D2/D3 (D3 selectivity ratio, D2 Ki/D3 Ki)” value was 34.

In turn, `CC(C)(C)c1nc(N2CCN(CCCCNC(=O)C3CCN(c4ccccc4)CC3)CC2)cc(C(F)(F)F)n1` [Compound 108, N-(4-(4-(2-(tert-Butyl)-6-(trifluoromethyl)pyrimidin-4-yl)piperazin-1-yl)butyl)-1-phenylpiperidine-4-carboxamide] gave a Ki in assay [2] of 0.809 ± 0.194 µM.

In turn, `Cc1cc(N2CCN(CCCCNC(=O)c3cn4ccccc4n3)CC2)nc(C(C)(C)C)n1` [Compound 111, N-(4-(4-(2-(tert-Butyl)-6-methylpyrimidin-4-yl)piperazin-1-yl)butyl)imidazo[1,2-a]pyridine-2-carboxamide] yielded an inhibition constant (Ki) in assay [2] of 0.366 µM. This Ki lies about 2.2-fold lower than the previous one.

On to `CC(C)(C)c1nc(C2CC2)cc(N2CCN(CCCCNC(=O)c3cn4ccccc4n3)CC2)n1` [Compound 112, N-(4-(4-(2-(tert-Butyl)-6-cyclopropylpyrimidin-4-yl)piperazin-1-yl)butyl)imidazo[1,2-a]pyridine-2-carboxamide], for which, in assay [2], the inhibitory constant (Ki) turned out to be 0.191 µM.

Compound `O=C(NCCCCN1CCN(c2ccnc3cc(Cl)ccc23)CC1)c1cn2ccccc2n1` [Compound 118, N-(4-(4-(7-Chloroquinolin-4-yl)piperazin-1-yl)butyl)imidazo[1,2-a]pyridine-2-carboxamide] registered a Ki in assay [2] of 1.88 ± 0.488 µM.

As for `Cc1nc(N2CCN(CCCCNC(=O)c3cn4ccccc4n3)CC2)cc(C(C)(C)C)n1` [Compound 125, N-(4-(4-(6-(tert-Butyl)-2-methylpyrimidin-4-yl)piperazin-1-yl)butyl)imidazo[1,2-a]pyridine-2-carboxamide], the Ki in assay [2] is 4.6 ± 0.785 µM.

The compound `O=C(NCCCCN1CCN(c2cc(C(F)(F)F)nc3ccccc23)CC1)c1cn2ccccc2n1` [Compound 130, N-(4-(4-(2-(Trifluoromethyl)quinolin-4-yl)piperazin-1-yl)butyl)imidazo[1,2-a]pyridine-2-carboxamide] displayed an inhibitory constant (Ki) in assay [2] of 13.6 ± 6.26 µM. This Ki is about 3-fold higher than that of the compound before.
